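Interpolation was linear, between the two tested concentrations surrounding the appropriate level; five concentrations were tested over 48 hours in 96-well plates. TGI: total growth inhibition.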

Holding throughout (assay): NCI-60 cell line screen, 48 h
Assay [1] deals with TK-10 renal.
For assay [2], the system named is OVCAR-8 ovarian.
Assay [3] concerns NCI-H23 lung.
Assay [4] relates to OVCAR-4 ovarian.
The subject of assay [5] is SNB-19 CNS.
For assay [6], the system named is DU-145 prostate.
Assay [7] concerns CAKI-1 renal.
The test system of assay [8] is UACC-62 melanoma.
Assay [9] relates to SN12C renal.
Assay [10] has as its system HOP-92 NSCLC.

Turning to `CC(=O)Nc1ccc(OC2=CCN(C)CC2)cc1`, the TGI in [1], in [2], in assay [3], in [4], in assay [5] and in [6] was more than 100 µM each time. Moreover, the TGI in assay [7], in [8] and in assay [9] was more than 100 µM each time.
On to `CCOC(=O)c1nc2ccc(C(F)(F)F)cc2nc1Oc1cc(OC)cc(OC)c1`, for which the TGI was more than 100 µM in assay [1]; more than 100 µM in assay [2]; more than 100 µM in assay [10]; 95.1 µM in [4]; more than 100 µM in assay [5]; more than 100 µM in assay [6]. Also, the TGI in assay [8] and in assay [9] was more than 100 µM in each case.
As for `O=c1[nH]nc(-c2ccccc2)n1/N=C/c1cccnc1`, the TGI in assay [1], in assay [2], in assay [10], in assay [3], in [5] and in assay [6] was more than 100 µM each time. The TGI is 72.4 µM in assay [7] and more than 100 µM in assay [9].
As for `O=C1C(=O)c2ccccc2C(O)=C1CCCc1ccc(Oc2ccccc2)cc1`, the TGI in assay [1] was more than 100 µM; in assay [2], more than 100 µM; in assay [10] it was 49.5 µM; in assay [3], 19.1 µM; in assay [4] it was more than 100 µM; in assay [5], more than 100 µM. The TGI in [7] is 70.5 µM; in assay [8], 15 µM; in [9], more than 100 µM.
For `CSC1=N/C(=C\c2ccco2)C(=O)N1CN1CCOCC1`, the TGI in assay [1], in assay [2], in assay [3], in [4], in assay [5] and in assay [6] was more than 100 µM each time. The TGI in assay [7] is more than 100 µM; in assay [8], more than 100 µM; in assay [9], more than 88.7 µM.
With `CCOC(=O)Cc1cc(OC)c(OC)cc1/C(Cl)=C(\C=O)c1ccc(OC)c(OC)c1`, the TGI in [1] is 90.8 µM; in assay [2] it was 80.8 µM; in assay [10], 10.3 µM; in assay [3], 51.2 µM; in [4], 56.3 µM; in [5] it was more than 100 µM. The TGI was 75.5 µM in [7], 37.9 µM in [8] and 33.5 µM in assay [9].
Take `CC1(c2ccc[n+](Cc3ccccc3)c2)OCCO1`: the TGI in assay [1], in [2], in assay [3], in [4], in assay [5] and in [7] was more than 100 µM throughout. In addition, the TGI in [8] and in assay [9] was more than 100 µM in each case.
Take `COc1ccc(-c2cc(-c3cc4cc(Br)ccc4nc3Cl)c(C#N)c(N)n2)cc1`: the TGI in assay [2], in assay [10], in [3], in assay [4], in [5] and in assay [6] was more than 12.5 µM each time. Also, the TGI in assay [7] and in assay [9] was more than 12.5 µM throughout.
Regarding `COc1cc(C(C)c2cc3c(cc2OCCO)OCO3)cc(OC)c1OC` (stereo not given), the TGI in assay [1], in [2], in [4], in [5], in assay [7] and in assay [8] was more than 100 µM throughout. In addition, the TGI in [9] was more than 100 µM.
As to `O=C(Cn1c(C(=O)/C=C/c2cccs2)nc2ccccc21)c1ccc(Cl)cc1`, the TGI in assay [1] was 89.5 µM; in assay [10], 93 µM; in assay [3], 36.8 µM; in assay [4] it was 76.9 µM; in [5], more than 100 µM; in [6] it was more than 100 µM. The TGI in assay [8] is more than 100 µM; in assay [9] it was 50.1 µM.
For `OC(CCNCc1ccccc1)c1ccc2ccccc2c1` (stereo not given), the TGI in assay [1] worked out at 33.6 µM; in assay [2], 45.9 µM; in assay [3] it was 62.1 µM; in assay [4] it was 72.9 µM; in assay [5], 47.9 µM; in [6] it was 39.6 µM. For the same compound, the TGI in [7] stood at 42.6 µM; in assay [8], 35.8 µM; in assay [9], 72.2 µM.
As to `CC1(C)CC(=O)c2c(nc3ccc4ccccc4c3c2-c2ccc(NC(=O)CCCCCCCCC(=O)Nc3ccc(-c4c5c(nc6ccc7ccccc7c46)CC(C)(C)CC5=O)cc3)cc2)C1`, the TGI in assay [1], in assay [2], in [10], in [3], in [5] and in assay [6] was more than 100 µM throughout. The TGI in assay [7], in assay [8] and in assay [9] was more than 100 µM throughout.
Turning to `CN1CCN(CCCBr)CC1`, the TGI in assay [1], in [2], in assay [10], in assay [3], in assay [4] and in assay [5] was more than 100 µM each time. Moreover, the TGI in assay [6], in assay [8] and in assay [9] was more than 100 µM throughout.
Consider `COc1ccc(C2N(NC(=O)c3ccncc3)C(=O)CS2(=O)=O)cc1F` (stereo not given), for which the TGI in assay [1], in [10], in [3], in assay [4], in assay [5] and in [7] was more than 100 µM in each case. The TGI in assay [9] was more than 100 µM.
For `COc1ccc(C(=O)Cc2ccc(Br)cc2)cc1OC`, the TGI in assay [1], in assay [2], in assay [3], in assay [4], in [5] and in assay [7] was more than 100 µM throughout. Besides, the TGI in assay [8] and in [9] was more than 100 µM throughout.

These data come from PubChem BioAssay (NCI).
